Source: ChEMBL document CHEMBL5728232, “Multi-functionalized polysaccharide compounds and use thereof for targeting the cation-independent mannose 6-phosphate receptor” (2021)

Molecular target: Cation-independent mannose-6-phosphate receptor (Homo sapiens, UniProt P11717)
Assay: Binding of the M6P Analogs of the Invention with CI-M6PR: 96-Well plates (Maxisorp Nunc) are incubated overnight at 4° C. with 200 μl of PMP (pentamannose 6-phosphate) at the concentration of 200 μg·ml−1, in carbonate buffer (NaHCO3/Na2CO3 at 0.1M, pH 9.6). The following day, the solution containing the residual PMP is discarded and the wells are saturated, for 1 h at ambient temperature, with 360 μl of 1% gelatin (Type A from Porcine Skin) diluted in PBS (1.9 mM NaH2PO4, 8.1 mM Na2PO4 and 154 mM NaCl, pH 7.4). The wells are then rinsed five times with PBS to which 0.2% gelatin has been added. All the washes and also the dilutions are carried out in the solution of PBS to which 0.2% gelatin has been added. The M6P analogs to be tested at the various concentrations (from 10−2 to 10−7 M) are pre-incubated in the presence of pre-biotinylated CI-M6PR (M6PRb) ([…]) for 20 min, then 200 μl of the mixture are incubated in the wells for 2 h, at ambient temperature. After three washes, the wells are incubated for 1 h with a streptavidin-peroxidase solution (250 μl per well; 3.10−8 M). After three more washes, 200 μl of a solution of OPD (o-phenylenediamine, 1 mg·ml−1 in citrate buffer, pH 5.0, and 1 μl 30% H2O2.ml−1; Sigma Aldrich) are added. […]

Sequence of Cation-independent mannose-6-phosphate receptor (P11717 whole entry): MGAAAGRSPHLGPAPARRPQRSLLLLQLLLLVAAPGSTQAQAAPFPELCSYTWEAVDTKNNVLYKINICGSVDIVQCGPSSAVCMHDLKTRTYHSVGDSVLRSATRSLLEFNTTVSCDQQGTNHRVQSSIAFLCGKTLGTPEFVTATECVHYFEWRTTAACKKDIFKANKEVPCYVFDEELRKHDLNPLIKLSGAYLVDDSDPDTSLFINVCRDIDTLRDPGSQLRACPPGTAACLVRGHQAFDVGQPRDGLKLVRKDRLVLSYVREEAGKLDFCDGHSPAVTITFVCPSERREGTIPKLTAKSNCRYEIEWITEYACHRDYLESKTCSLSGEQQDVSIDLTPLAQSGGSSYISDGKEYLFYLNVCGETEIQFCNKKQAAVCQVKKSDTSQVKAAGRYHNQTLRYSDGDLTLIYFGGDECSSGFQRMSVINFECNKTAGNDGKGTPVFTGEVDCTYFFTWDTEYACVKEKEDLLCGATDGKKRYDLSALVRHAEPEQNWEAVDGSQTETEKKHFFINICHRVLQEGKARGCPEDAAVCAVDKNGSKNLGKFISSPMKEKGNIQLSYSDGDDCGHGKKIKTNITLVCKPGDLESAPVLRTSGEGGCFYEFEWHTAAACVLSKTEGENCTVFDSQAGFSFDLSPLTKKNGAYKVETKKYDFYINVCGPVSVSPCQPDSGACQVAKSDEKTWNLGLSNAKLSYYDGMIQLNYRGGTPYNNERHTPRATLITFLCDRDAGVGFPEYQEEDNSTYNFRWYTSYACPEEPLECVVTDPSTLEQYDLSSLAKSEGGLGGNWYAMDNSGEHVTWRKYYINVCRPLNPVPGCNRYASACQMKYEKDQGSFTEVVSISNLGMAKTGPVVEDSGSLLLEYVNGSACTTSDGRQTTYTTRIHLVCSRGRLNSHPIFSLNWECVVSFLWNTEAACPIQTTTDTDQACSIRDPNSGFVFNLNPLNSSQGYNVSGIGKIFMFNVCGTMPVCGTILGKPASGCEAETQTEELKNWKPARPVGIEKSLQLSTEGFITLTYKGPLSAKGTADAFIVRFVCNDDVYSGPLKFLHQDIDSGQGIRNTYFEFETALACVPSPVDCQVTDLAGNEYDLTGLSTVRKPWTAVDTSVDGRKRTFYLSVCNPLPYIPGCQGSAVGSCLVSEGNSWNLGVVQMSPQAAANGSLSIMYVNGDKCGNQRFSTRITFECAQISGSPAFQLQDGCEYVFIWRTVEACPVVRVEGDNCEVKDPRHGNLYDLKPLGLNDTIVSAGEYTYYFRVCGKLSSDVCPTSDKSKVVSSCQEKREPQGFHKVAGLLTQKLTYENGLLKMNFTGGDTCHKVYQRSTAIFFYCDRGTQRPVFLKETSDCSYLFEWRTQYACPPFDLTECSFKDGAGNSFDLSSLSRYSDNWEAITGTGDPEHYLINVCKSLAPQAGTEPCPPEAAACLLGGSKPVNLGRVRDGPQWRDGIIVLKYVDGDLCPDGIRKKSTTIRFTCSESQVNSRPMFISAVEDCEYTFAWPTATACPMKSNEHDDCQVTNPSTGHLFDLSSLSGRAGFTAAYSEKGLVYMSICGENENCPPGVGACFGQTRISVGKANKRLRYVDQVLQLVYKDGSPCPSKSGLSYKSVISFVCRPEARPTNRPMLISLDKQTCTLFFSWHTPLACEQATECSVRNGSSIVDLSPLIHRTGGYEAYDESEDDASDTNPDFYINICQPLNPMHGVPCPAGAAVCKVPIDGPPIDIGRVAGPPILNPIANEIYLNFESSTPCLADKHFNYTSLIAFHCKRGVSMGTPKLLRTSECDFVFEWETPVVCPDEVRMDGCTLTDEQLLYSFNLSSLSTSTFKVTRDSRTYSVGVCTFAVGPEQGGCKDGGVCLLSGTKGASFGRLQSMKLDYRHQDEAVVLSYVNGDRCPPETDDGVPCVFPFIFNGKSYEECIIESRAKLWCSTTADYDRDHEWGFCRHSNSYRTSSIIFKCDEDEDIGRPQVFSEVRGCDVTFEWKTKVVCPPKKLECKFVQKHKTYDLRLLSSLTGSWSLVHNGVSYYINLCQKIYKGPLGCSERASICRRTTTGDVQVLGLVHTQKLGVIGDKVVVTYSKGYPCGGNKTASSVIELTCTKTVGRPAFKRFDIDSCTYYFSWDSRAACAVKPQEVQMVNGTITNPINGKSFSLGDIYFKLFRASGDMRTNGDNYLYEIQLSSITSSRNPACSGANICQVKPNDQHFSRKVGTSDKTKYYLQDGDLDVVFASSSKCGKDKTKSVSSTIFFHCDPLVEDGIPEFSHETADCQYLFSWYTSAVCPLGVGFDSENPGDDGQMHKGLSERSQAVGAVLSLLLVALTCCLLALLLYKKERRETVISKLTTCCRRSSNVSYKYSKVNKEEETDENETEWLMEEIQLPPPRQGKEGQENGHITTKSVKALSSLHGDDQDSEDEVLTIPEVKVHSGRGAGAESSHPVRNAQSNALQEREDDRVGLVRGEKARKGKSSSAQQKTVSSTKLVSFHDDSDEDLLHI

NCCO[C@H]1OC(CO)[C@@H](O)[C@H](O)C1O[C@H]1OC(CCP(=O)(O)O)[C@@H](O)[C@H](O)C1O (stereo partly specified)
IC50: 5 µM
